The results in this text go back to ChEMBL document CHEMBL1130294, “Subsite requirements for peptide aldehyde inhibitors of human calpain I” (Bioorg Med Chem Lett, 1997).

Structures are written as SMILES. Non-standard residues stand in square brackets, D forms with d. Residues, ends and D or L forms follow the SMILES beside them. *: point of attachment. Tle = CC(C)(C)[C@H](N)C(=O)O; Cbz = O=C(OCc1ccccc1)*; OtBu = CC(C)(C)O*; tBu = CC(C)(C)*

In this experiment the target is T1, Calpain-1 catalytic subunit (Homo sapiens, UniProt P07384).
T1 sequence (P07384 whole entry): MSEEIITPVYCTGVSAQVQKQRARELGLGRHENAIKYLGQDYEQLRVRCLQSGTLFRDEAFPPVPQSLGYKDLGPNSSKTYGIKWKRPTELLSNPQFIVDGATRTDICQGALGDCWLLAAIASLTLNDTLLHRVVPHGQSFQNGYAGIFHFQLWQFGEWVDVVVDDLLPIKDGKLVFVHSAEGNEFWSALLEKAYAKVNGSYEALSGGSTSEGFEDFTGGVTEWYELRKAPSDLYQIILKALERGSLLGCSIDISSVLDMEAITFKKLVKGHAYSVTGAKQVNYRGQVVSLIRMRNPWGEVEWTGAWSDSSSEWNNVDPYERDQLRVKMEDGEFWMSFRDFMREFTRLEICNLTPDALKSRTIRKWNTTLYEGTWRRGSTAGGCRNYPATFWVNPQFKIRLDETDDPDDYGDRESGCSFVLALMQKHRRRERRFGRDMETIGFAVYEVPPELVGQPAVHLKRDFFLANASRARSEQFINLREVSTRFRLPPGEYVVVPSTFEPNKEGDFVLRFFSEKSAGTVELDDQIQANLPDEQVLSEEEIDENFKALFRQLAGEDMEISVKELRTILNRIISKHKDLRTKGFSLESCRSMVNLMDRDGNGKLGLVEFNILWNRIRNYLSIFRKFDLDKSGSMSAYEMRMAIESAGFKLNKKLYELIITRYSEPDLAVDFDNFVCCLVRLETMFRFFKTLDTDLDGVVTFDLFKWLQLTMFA
The experiment can be described thus: Inhibitory activity evaluated against recombinant human calpain 1.
As usually defined, the IC50 is the concentration that gives 50% inhibition. Turning to `CC(C)C[C@@H](C=O)NC(=O)[C@H](CC(C)C)NC(=O)[C@H](CCC(=O)OC(C)(C)C)NC(=O)OCc1ccccc1` (Cbz-Glu(OtBu)-Leu-Leu-aldehyde), the IC50 was 25 nM.

For the molecule `CC(C)C[C@@H](C=O)NC(=O)[C@H](CC(C)C)NC(=O)[C@H](CC(C)C)NC(=O)OCc1ccccc1` (Cbz-Leu-Leu-Leu-aldehyde), the IC50 turned out to be 19 nM. Regarding `CC(C)C[C@H](NC(=O)OCc1ccccc1)C(=O)N[C@H](C=O)Cc1cnc[nH]1` (Cbz-Leu-His-aldehyde), the IC50 was determined as 15 nM. As for `CC(C)C[C@@H](C=O)NC(=O)[C@H](Cc1ccccc1)NC(=O)OCc1ccccc1` (Cbz-Phe-Leu-aldehyde), the figure is 230 nM; as for `CC(C)C[C@@H](C=O)NC(=O)[C@H](CC(C)C)NC(=O)OCc1ccccc1`, 8 nM; as for `CC[C@H](C)[C@H](NC(=O)OCc1ccccc1)C(=O)N[C@H](C=O)CC(C)C` (Cbz-Ile-Leu-aldehyde), 41 nM. Regarding `CC(C)C[C@@H](C=O)NC(=O)[C@H](CCC(=O)O)NC(=O)[C@H](CC(C)C)NC(=O)OCc1ccccc1` (Cbz-Leu-Glu-Leu-aldehyde), the IC50 is 1200 nM.

Regarding `CC(C)C[C@H](NC(=O)OCc1ccccc1)C(=O)N(C)[C@H](C=O)CC(C)C`, the half-maximal inhibitory concentration (IC50) was > 1000 nM. Take `CC(C)C[C@@H](C=O)NC(=O)[C@H](CC(C)C)NC(=O)[C@H](CCC(=O)O)NC(=O)OCc1ccccc1` (Cbz-Glu-Leu-Leu-aldehyde): the half-maximal inhibitory concentration (IC50) came out at 40 nM.

Regarding `CC(C)C[C@@H](C=O)NC(=O)[C@H](CC(C)C)NC(=O)[C@H](C)NC(=O)OCc1ccccc1` (Cbz-Ala-Leu-Leu-aldehyde), the IC50 was 5 nM.

`CC(=O)N[C@@H](COC(C)(C)C)C(=O)N[C@@H](CC(C)C)C(=O)N[C@H](C=O)CC(C)C` (Ac-Ser(tBu)-Leu-Leu-aldehyde): the IC50 was determined as 37 nM. Take `CC(C)C[C@H](C=O)NC(=O)OCc1ccccc1`: the IC50 turned out to be 10000 nM. In the case of `CC(C)C[C@@H](C=O)NC(=O)[C@@H](NC(=O)OCc1ccccc1)C(C)(C)C` (Cbz-[Tle]-Leu-aldehyde), the IC50 was found to be 4 nM.

As to `CCCC[C@@H](C=O)NC(=O)[C@H](CC(C)C)NC(=O)OCc1ccccc1` [CALPEPTIN], the 50% inhibitory concentration (IC50) came out at 5 nM. As for `CC(C)C[C@@H](C=O)NC(=O)[C@H](Cc1c[nH]c2ccccc12)NC(=O)[C@H](CC(C)C)NC(=O)OCc1ccccc1` (Cbz-Leu-Trp-Leu-aldehyde), the figure is 45 nM.
